We go through 39 compounds from PubChem BioAssay AID1549 (Sanford-Burnham Center for Chemical Genomics, 2009).

The structures appear in SMILES notation. Calls of active or inactive are those of the source. The rule behind the calls is not given here.

The experiment concerns the target Influenza A virus M2 proton channel (A/TW/4845/1999 H1N1). In words: NMR binding screen, influenza A virus M2 proton channel, Kd (AID 1549). To be noted: M2 protein.
In the case of `NC(=O)CSc1ncnc2ccccc12`, the Kd – broadly, the concentration at which binding is half-saturated – is > 4 mM (inactive).

For `CS(=O)(=O)N1CCN(C(=O)c2ccccc2)CC1`, the Kd is > 4 mM (inactive).

Regarding `O=C(O)c1cc2ccccc2cn1`, the Kd is > 4 mM (inactive).

As to `Clc1ccc(-n2ccnc2)nn1`, the Kd was > 4 mM (inactive).

On to `COc1ccc(-c2coc3c(O)c(OC)ccc3c2=O)cc1`, for which the Kd was > 4 mM (inactive).

Take `O=c1/c(=C/c2cccs2)sc2ncnn12`: the Kd is > 4 mM (inactive).

With `COc1ccc2c(=O)c(OC)c(-c3ccccc3)oc2c1`, the Kd was > 4 mM (inactive).

Take `NC(=O)CSc1nnc2ccc(-c3ccco3)nn12`: the Kd was > 4 mM (inactive).

Regarding `N/N=C/c1cccnc1`, the Kd is > 4 mM (inactive).

Turning to `NCC(=O)c1ccccc1`, the Kd is > 4 mM (inactive).

In the case of `CCN1CC2(C)CC[C@H](OC)[C@]34C2[C@H](O)C2(OCO[C@@]25C[C@H](OC)[C@H]2C[C@]3(O)C5[C@H]2O)C14`, the Kd was > 4 mM (inactive).

Take `Cc1nc2ccccc2c(=O)n1NC(=O)C1CCCCC1`: the Kd is > 4 mM (inactive).

For `CCn1cnc(C(=O)NC)c1C(=O)NC`, the Kd is > 4 mM (inactive).

`NS(=O)(=O)c1ccc(NC(=O)C(F)(F)F)cc1`: the Kd was > 4 mM (inactive).

In the case of `Cc1nnc(SCc2cccs2)[nH]c1=O`, the Kd was > 4 mM (inactive).

Take `CC(=O)O[C@@H]1CC[C@@]2(C)C(CC[C@]3(C)C2CC=C2C4CC(C)(C)CC[C@]4(C(=O)O)CC[C@]23C)C1(C)C` (some centres undefined): the Kd is > 4 mM (inactive).

With `C[C@H]1[C@H](C)CC[C@]2(C(=O)O)CC[C@]3(C)C(=CCC4[C@@]5(C)C[C@@H](O)[C@H](O)[C@@](C)(CO)C5[C@H](O)C[C@]43C)[C@H]12` (some centres undefined), the Kd is > 4 mM (inactive).

Turning to `COc1ccccc1-c1c(C)nn2c(C)c(C(C)=O)cnc12`, the Kd was > 4 mM (inactive).

Regarding `O=C(NN=C1CCCC1)c1ccncc1`, the Kd was > 4 mM (inactive).

As for `CS(=O)(=O)CCCCN=C=S`, the Kd is > 4 mM (inactive).

Regarding `NS(=O)(=O)c1ccc(NC(=O)c2ccccc2F)cc1`, the Kd is > 4 mM (inactive).

As to `O=C(O)C1CCCCN1Cc1ccccc1` (centres undefined), the Kd was > 4 mM (inactive).

Take `NC(=O)c1cc2c(n(-c3ccccc3)c1=O)CCCC2=O`: the Kd is > 4 mM (inactive).

Take `Nc1ccc2c(c1)CCCC2=O`: the Kd is > 4 mM (inactive).

For `O=S(=O)(CCN1CCCC1)c1ccccc1`, the Kd is > 4 mM (inactive).

For the compound `S=C=NCc1ccccc1`, the Kd was > 4 mM (inactive).

Take `Fc1cccc(Cl)c1CN1CCNCC1`: the Kd is > 4 mM (inactive).

Consider `COC(=O)c1cc(-c2c(C)nn(-c3ccccc3)c2C)n[nH]1`, for which the Kd is > 4 mM (inactive).

Consider `COc1ccc(N/C(N)=N\c2nc(C)cc(C)n2)cc1`, for which the Kd was > 4 mM (inactive).

As for `CC(NC(=O)c1ccco1)c1ccc2c(c1)OCCO2` (centres undefined), the Kd is > 4 mM (inactive).

In the case of `Cc1cc(C(=O)NCc2cccs2)cs1`, the Kd is > 4 mM (inactive).

On to `CN(C)C(=O)Nc1ccc2c(c1)nnn2C`, for which the Kd is > 4 mM (inactive).

As to `Cn1c(-c2ccccc2F)n[nH]c1=S`, the Kd was > 4 mM (inactive).

Consider `CCC1(CC)C(=O)NC(=O)N=C1N`, for which the Kd is > 4 mM (inactive).

For the compound `O=C(CN1C(=O)c2cccc3cccc(c23)C1=O)NO`, the Kd is > 4 mM (inactive).

Turning to `C=C1C2CC[C@@]3(C)[C@H](c4ccoc4)OC(=O)C[C@]13O[C@H]1C[C@H](OC(C)=O)C(C)(C)[C@H](CC(=O)OC)[C@@]21C`, the Kd is > 4 mM (inactive).

As to `CCn1ncc(Cl)c1C(=O)Nc1ccncc1`, the Kd was > 4 mM (inactive).

Turning to `C[C@@H]1C(=O)O[C@H]2[C@H]1CC[C@@]1(C)C=CC(=O)[C@@]3(C)O[C@@]213`, the Kd was > 4 mM (inactive).

In the case of `Nc1cc(=O)[nH]c(SCC(=O)NCc2ccccc2)n1`, the Kd was > 4 mM (inactive).
